{
  "source": "patent US20170157212A1",
  "about": "“CDK MODULATORS AND METHODS FOR THE TREATMENT OF CANCER” (Salk Institute for Biological Studies, priority 2015, published 2017)",
  "key": {"[1]": {"tested_on": "CRIF1-CDK12 interaction in U2OS cells", "test": "Co-immunoprecipitation of CRIF1 with CDK12:CCNK under oxidative stress", "format": "cell-based, human", "details": "100 μM for 4 h, reciprocal co-immunoprecipitation", "experimental": "(§1) FIGS. 7A-7F. […] (F) Oxidative stress activates the CDK12 pathway.\n(§2) CDK12 was also recently shown to be essential for NRF2-dependent transcription (Li et al., Sci Rep 6, 21455, 2016). To examine whether CDK12 activity is regulated globally by oxidative stress in human cells, U2OS cells were treated with tBHQ (tert-butylhydroquinone) to induce mitochondrial oxidative stress. […] In contrast, oxidative stress had no effect on the interaction of CCNK with CDK12."}, "[2]": {"tested_on": "U2OS cells", "test": "Immunoblot of CDK12 substrate phosphorylation under oxidative stress", "format": "cell-based, human", "details": "100 μM for 4 h", "experimental": "as §1, §2"}, "[3]": {"tested_on": "CHK1, RPL26, TMA7 gene promoters in U2OS cells", "test": "Chromatin immunoprecipitation (ChIP) at CDK12 target gene promoters", "format": "cell-based, human", "details": "12 hr treatment", "experimental": "Briefly, 5×10^6 cells were twice washed with ice-cold PBS and serially cross-linked with 2 mM DSG (Disuccinimidylglutarate) for 20 min and 1% (v/v) formaldehyde for 10 min at room temperature. The cross-linking reaction was stopped by adding glycine to a final concentration of 0.125 M for 10 min at room temperature. Cells were washed twice with cold PBS. […] ChIP DNA is analyzed by SYBR® Green master mixes (Life Technologies) using described primer sets. qPCR is carried out in the ABI7300 (Applied Biosystems) with a 10 min DNA denaturation step at 95° C., followed by 40 cycles of 15 s at 95° C., 60 s at 60° C. […]\nChIP experiments were carried out as described in the previous report. […] ChIP DNA is analyzed by SYBR® Green master mixes (Life Technologies) using described primer sets. qPCR is carried out in the ABI7300 (Applied Biosystems) with a 10 min DNA denaturation step at 95° C., followed by 40 cycles of 15 s at 95° C., 60 s at 60° C. […]"}, "[4]": {"target": "Cdk12 (Homo sapiens, UniProt Q9NYV4)", "sequence (Q9NYV4 whole entry)": "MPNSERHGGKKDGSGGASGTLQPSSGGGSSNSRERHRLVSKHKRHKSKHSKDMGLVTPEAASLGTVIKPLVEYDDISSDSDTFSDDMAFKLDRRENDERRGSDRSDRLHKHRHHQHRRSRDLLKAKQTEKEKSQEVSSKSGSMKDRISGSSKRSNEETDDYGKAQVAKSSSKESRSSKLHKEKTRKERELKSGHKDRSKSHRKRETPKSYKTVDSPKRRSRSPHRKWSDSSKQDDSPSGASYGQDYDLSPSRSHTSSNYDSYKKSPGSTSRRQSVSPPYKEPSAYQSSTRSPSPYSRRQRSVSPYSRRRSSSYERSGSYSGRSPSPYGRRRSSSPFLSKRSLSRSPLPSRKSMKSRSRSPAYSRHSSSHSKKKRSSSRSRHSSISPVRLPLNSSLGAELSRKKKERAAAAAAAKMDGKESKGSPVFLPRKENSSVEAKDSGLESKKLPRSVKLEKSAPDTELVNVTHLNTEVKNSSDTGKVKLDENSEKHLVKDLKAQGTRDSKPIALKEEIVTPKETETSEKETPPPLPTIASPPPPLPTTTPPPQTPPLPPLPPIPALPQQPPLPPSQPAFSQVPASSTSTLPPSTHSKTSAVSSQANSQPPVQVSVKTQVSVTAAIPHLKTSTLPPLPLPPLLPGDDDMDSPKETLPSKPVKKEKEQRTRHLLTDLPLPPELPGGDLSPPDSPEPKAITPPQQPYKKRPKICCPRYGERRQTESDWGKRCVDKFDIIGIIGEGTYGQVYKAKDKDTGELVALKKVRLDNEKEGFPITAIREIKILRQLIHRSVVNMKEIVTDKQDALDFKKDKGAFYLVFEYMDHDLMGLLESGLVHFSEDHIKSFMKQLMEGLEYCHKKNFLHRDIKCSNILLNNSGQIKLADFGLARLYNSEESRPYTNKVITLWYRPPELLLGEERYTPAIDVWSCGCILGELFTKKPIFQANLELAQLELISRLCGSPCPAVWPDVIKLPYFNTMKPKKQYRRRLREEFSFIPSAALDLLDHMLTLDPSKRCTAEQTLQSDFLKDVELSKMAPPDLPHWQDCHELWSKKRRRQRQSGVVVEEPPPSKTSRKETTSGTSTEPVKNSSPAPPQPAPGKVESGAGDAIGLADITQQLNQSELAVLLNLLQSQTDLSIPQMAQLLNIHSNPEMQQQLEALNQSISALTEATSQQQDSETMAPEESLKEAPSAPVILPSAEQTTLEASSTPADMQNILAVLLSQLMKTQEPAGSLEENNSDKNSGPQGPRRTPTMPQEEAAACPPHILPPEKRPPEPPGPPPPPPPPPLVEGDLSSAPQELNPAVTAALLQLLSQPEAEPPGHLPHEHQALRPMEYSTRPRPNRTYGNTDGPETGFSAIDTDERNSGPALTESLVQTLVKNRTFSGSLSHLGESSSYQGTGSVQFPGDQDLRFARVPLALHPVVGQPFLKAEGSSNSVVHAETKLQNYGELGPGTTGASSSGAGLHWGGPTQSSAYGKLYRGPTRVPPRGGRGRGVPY", "sequence (O75909 whole entry partner)": "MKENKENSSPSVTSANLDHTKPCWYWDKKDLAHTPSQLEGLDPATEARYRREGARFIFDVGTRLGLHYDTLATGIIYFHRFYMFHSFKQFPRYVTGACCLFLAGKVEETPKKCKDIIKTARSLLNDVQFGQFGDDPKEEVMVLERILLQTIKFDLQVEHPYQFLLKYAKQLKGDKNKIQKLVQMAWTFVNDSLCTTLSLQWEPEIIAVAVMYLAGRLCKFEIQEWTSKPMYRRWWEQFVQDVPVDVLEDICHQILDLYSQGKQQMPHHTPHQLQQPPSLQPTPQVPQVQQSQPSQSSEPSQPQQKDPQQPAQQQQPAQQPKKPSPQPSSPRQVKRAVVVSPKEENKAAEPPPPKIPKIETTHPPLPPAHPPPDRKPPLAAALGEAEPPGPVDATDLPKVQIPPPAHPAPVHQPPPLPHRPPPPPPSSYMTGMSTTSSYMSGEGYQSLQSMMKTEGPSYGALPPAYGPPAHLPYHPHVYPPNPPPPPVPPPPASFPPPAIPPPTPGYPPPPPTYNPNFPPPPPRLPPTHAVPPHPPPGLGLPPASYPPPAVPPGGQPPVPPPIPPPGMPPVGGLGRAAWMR", "details": "have been shown (prior knowledge); cited from earlier work"}, "[5]": {"tested_on": "U2OS cells", "details": "CDK12 siRNA, 1 μM for 12 hr", "procedure": "Top panel: U2OS cells were treated with tBHQ (tert-Butylhydroquinone) 100 μM for 4 h, and cell extracts were analyzed by co-immunoprecipitation with anti-CDK12 antisera for association of CRIF1 or CCNK."}, "[6]": {"tested_on": "eIF4G-bound mRNAs in U2OS cells", "test": "RIP-seq of eIF4G-bound mRNAs", "format": "cell-based, human", "details": "transcriptional targets excluded", "experimental": "All steps were conducted at 4° C. in RNase-free conditions. U20S cells (5×10^6) were transfected with the indicated siRNAs and washed twice with cold PBS. […] Reverse transcription and qRT-PCR for quantitative RNA analysis was carried out as described above.\nAll steps were conducted at 4° C. in RNase-free conditions. […] Reverse transcription and qRT-PCR for quantitative RNA analysis was carried out as described above.\nHigh throughput sequencing was performed. For detail of analysis, sequenced reads were quality-tested using FASTQC and aligned to the hg19 human genome using the STAR aligner version 2.4.0 k (Dobin et al., Bioinformatics. 2013; 29(1):15-21. doi: 10.1093/bioinformatics/bts635. pmid:23104886). Mapping was carried out using default parameters (up to 10 mismatches per read, and up to 9 multi-mapping locations per read). […] Raw gene expression was quantified across all gene exons (RNA-Seq) or across gene bodies (RIP-Seq), using the top-expressed isoform as proxy for gene expression, and differential gene expression was carried out using the edgeR package version 3.6.8 (Robinson et al. (2010) Bioinformatics, 26, pp. 1) using duplicates to compute within-group dispersion. […]"}},
  "data": [
    {"smiles": "CC(C)(C)c1cc(O)ccc1O", "note": "[tBHQ, tert-butylhydroquinone]", "values": [
      {"measurement": "association of CRIF1 with the CDK12:CCNK complex", "setting": "[1]", "result": "greatly reduced"},
      {"measurement": "RNAPII CTD-Ser2 and 4E-BP1 S65, T70 phosphorylation", "setting": "[2]", "result": "global increase"},
      {"measurement": "mTORC1-dependent 4E-BP1 T37/46 phosphorylation levels", "setting": "[2]", "result": "only modestly increased"}
    ]},
    {"smiles": "CC[C@H](C)[C@@H]1NC(=O)CNC(=O)[C@@H]2Cc3c([nH]c4cc(O)ccc34)[S+]([O-])C[C@@H](NC(=O)CNC1=O)C(=O)N[C@@H](CC(N)=O)C(=O)N1C[C@H](O)C[C@H]1C(=O)N[C@@H]([C@@H](C)[C@@H](O)CO)C(=O)N2", "note": "(stereo in doubt) [α-amanitin]", "values": [
      {"measurement": "association of eIF4E and 4E-BP1 at the CHK1 promoter", "setting": "[3]", "result": "largely abolished"},
      {"measurement": "occupancy of RNAPII or CDK12 at the CHK1 promoter", "setting": "[3]", "result": "without affecting"}
    ]},
    {"smiles": "CN1CC[C@H](c2c(O)cc(O)c3c(=O)cc(-c4ccccc4Cl)oc23)[C@H](O)C1", "note": "[flavopiridol]", "values": [
      {"measurement": "inhibition of Cdk12 kinase activity", "setting": "[4]", "result": "modestly inhibit"}
    ]},
    {"smiles": "O=C(c1cc(Cc2n[nH]c(=O)c3ccccc23)ccc1F)N1CCN(C(=O)C2CC2)CC1", "note": "[Olaparib, olaparib]", "values": [
      {"measurement": "cell survival with CDK12 depletion", "setting": "[5]", "result": "sensitizes"}
    ]},
    {"smiles": "CO[C@H]1C[C@@H]2CC[C@@H](C)[C@@](O)(O2)C(=O)C(=O)N2CCCC[C@H]2C(=O)O[C@H]([C@H](C)C[C@@H]2CC[C@@H](O)[C@H](OC)C2)CC(=O)[C@H](C)/C=C(\\C)[C@@H](O)[C@@H](OC)C(=O)[C@H](C)C[C@H](C)/C=C/C=C/C=C/1C", "note": "[rapamycin]", "values": [
      {"measurement": "number of rapamycin-sensitive mRNAs that require mTORC1 to efficiently bind eIF4G", "setting": "[6]", "result": "2,961"}
    ]},
    {"smiles": "CN(C)C/C=C/C(=O)Nc1ccc(C(=O)Nc2cccc(Nc3ncc(Cl)c(-c4c[nH]c5ccccc45)n3)c2)cc1", "note": "[THZ1]", "values": [
      {"measurement": "inhibition of Cdk12 kinase activity", "setting": "[4]", "result": "modestly inhibit"}
    ]}
  ]
}
